Consider 29 compounds from ChEMBL document CHEMBL1155965, “Addressing the malaria drug resistance challenge using flow cytometry to discover new antimalarials” (Bioorg Med Chem Lett, 2009).

The test system of series [1] is Plasmodium falciparum. In words: Antimalarial activity against Plasmodium falciparum W2mef at 10 uM after 48 hrs by hoechst 33342-thiazole orange stain based flow cytometry assay. Format: functional.
Series [2] has as its system Plasmodium falciparum. The experiment in a line: Antimalarial activity against Plasmodium falciparum W2mef assessed as DNA positive erythrocytes by hoechst 33342-thiazole orange stain based flow cytometry assay. Format: functional, organism-based.
In series [3] the test system is Plasmodium falciparum. The experiment in a line: Antimalarial activity against Plasmodium falciparum W2mef ring form by hoechst 33342-thiazole orange stain based flow cytometry assay. Format: functional, organism-based.
Series [4] relates to Plasmodium falciparum. The experiment in a line: Antimalarial activity against Plasmodium falciparum W2mef trophozoite form by hoechst 33342-thiazole orange stain based flow cytometry assay. Format: functional, organism-based.
The test system of series [5] is Plasmodium falciparum. In words: Antimalarial activity against Plasmodium falciparum W2mef schizont form by hoechst 33342-thiazole orange stain based flow cytometry assay. Format: functional, organism-based.
The subject of series [6] is Plasmodium falciparum. In words: microbe, parasite or virus in culture. To be noted: W2mef.
Description: Antimalarial activity against Plasmodium falciparum W2mef by hypoxanthine uptake assay
Series [7] is described as follows: Cytotoxicity against human erythrocytes assessed as intact cells by propidium iodide stain based flow cytometry. Format: cell-based, Erythrocyte. To be noted: read-out: Activity.
Series [8] can be described thus: Cytotoxicity against human erythrocytes assessed as change in internal complexity by flow cytometry. Format: cell-based. The note with it: erythrocyte.
A short description of series [9]: Cytotoxicity against human erythrocytes assessed as change in cell shape by flow cytometry. Format: cell-based. To be noted: erythrocyte.

The compound `O=C(c1ccc(Cl)cc1)c1ccc2[nH]c(=O)cc(-c3cccc(Cl)c3)c2c1` had an inhibition at 10 µM in the series on Plasmodium falciparum [1] of 36.1%.

In the series on Plasmodium falciparum [1], `O=S(=O)(c1ccccc1)C(CCCn1ccnc1)c1ccc(I)cc1` (centres undefined) had an inhibition at 10 µM of 3.46%.

Compound `Cc1cc(I)ccc1Nc1c(C(=O)N2CCNCC2)cc2nc[nH]c2c1F` showed an inhibition at 10 µM in the series on Plasmodium falciparum [1] of 0.25%.

In the series on Plasmodium falciparum [1], `Ic1ccc(CSCc2c[nH]cn2)cc1` yielded an inhibition at 10 µM of 37.1%.

As to `Oc1c(F)cc(CN2CCc3ccccc3C2)cc1F`, the inhibition at 10 µM with Plasmodium falciparum [1] was 8.47%.

Take `C[C@@H]1CC[C@H]2[C@@H](C)C(=O)O[C@@H]3O[C@@]4(C)CC[C@@H]1[C@]32OO4` [ARTEMISININ]: the IC50 is 0.011 µM in the series on Plasmodium falciparum [2]; 0.02 µM in the series with Plasmodium falciparum [3]; 0.007 µM in the series with Plasmodium falciparum [4]; 0.008 µM in the series on Plasmodium falciparum [5]; 0.012 µM in the series on Plasmodium falciparum [6].

`COC(=O)c1cn2nc[nH]c(=O)c2c1C` gave an inhibition at 10 µM in the series with Plasmodium falciparum [1] of 9.62%.

The compound `N#Cc1ccc(Nc2nc(O)cc(O)n2)cc1` came in with an inhibition at 10 µM with Plasmodium falciparum [1] of 1.46%.

In turn, `Cn1cnc(CSCc2ccc(I)cc2)c1` had an inhibition at 10 µM in the series with Plasmodium falciparum [1] of 74.9%. Moreover, the half-maximal inhibitory concentration (IC50) in the series on Plasmodium falciparum [2] was 3.77 µM; in the series on Plasmodium falciparum [3], 1.07 µM; in the series on Plasmodium falciparum [4], 16.6 µM; with Plasmodium falciparum [5], 2 µM.

In the series on Plasmodium falciparum [1], `CCN(CC)C(=O)[C@@]1(c2ccccc2)C[C@H]1CNC(=O)O[C@@H]1O[C@H](C(=O)OC)[C@@H](O)[C@H](O)[C@H]1O` displayed an inhibition at 10 µM of 3.16%.

As to `O=C(NCCc1c[nH]cn1)/C(Cc1ccccc1)=N\O`, the inhibition at 10 µM in the series with Plasmodium falciparum [1] stood at 2.61%.

Compound `Cn1cncc1CSCc1ccc(I)cc1` displayed an inhibition at 10 µM in the series with Plasmodium falciparum [1] of 41.9%.

Consider `Cn1cc(-c2[nH]c3cc(N)cc4c3c2C=NNC4=O)cn1`, for which, in the series with Plasmodium falciparum [1], 10 µM produced 9.17% inhibition.

Take `Cc1cc(O)cc(C)c1CN1CCc2ccccc2C1`: the inhibition at 10 µM in the series on Plasmodium falciparum [1] was found to be 6.76%.

In the case of `Cn1cnc(CSCc2ccccc2)c1`, 10 µM produced 42.1% inhibition in the series with Plasmodium falciparum [1].

In the case of `Cn1cnc(C[S+]([O-])Cc2ccc(I)cc2)c1` (centres undefined), the inhibition at 10 µM in the series with Plasmodium falciparum [1] was 6.31%.

Compound `Cc1[nH]c(/C=C2\C(=O)Nc3ccc(S(=O)(=O)N(C)c4cccc(Cl)c4)cc32)c(C)c1C(=O)N1CCN(C)CC1` registered an inhibition at 10 µM in the series with Plasmodium falciparum [1] of 85.1%. The IC50 was 0.32 µM with Plasmodium falciparum [2], 0.228 µM in the series with Plasmodium falciparum [3], 0.62 µM with Plasmodium falciparum [4] and 0.317 µM in the series with Plasmodium falciparum [5].

Take `Oc1ccc(C(O)C2CCc3ccccc3C2)cc1` (centres undefined): the inhibition at 10 µM in the series on Plasmodium falciparum [1] stood at 14.6%.

In the case of `O=C(Cc1ccc(O)cc1)N1CCc2ccccc2C1`, at 10 µM the inhibition with Plasmodium falciparum [1] was 1.1%.

For `OC(c1cc(C(F)(F)F)nc2c(C(F)(F)F)cccc12)C1CCCCN1` (centres undefined) [MEFLOQUINE], the half-inhibitory concentration (IC50) in the series with Plasmodium falciparum [3] was determined as 0.147 µM; with Plasmodium falciparum [4], 0.074 µM; in the series on Plasmodium falciparum [5], 0.044 µM; in the series with Plasmodium falciparum [6], 0.142 µM.

In the case of `Clc1ccc(C2(c3ccc4noc(-c5cccc(Cl)c5)c4c3)OCCO2)cc1`, at 10 µM the inhibition with Plasmodium falciparum [1] was 54.5%.

On to `Cc1cc(/C=C/C#N)cc(C)c1Nc1ccnc(Nc2ccc(C#N)cc2)n1` [RILPIVIRINE], for which, in the series with Plasmodium falciparum [1], testing at 10 µM gave an inhibition of 49.8%. Besides, the IC50 in the series with Plasmodium falciparum [2] turned out to be 1.1 µM; with Plasmodium falciparum [3] it was 1.2 µM; in the series on Plasmodium falciparum [4], 2 µM; in the series on Plasmodium falciparum [5], 1.21 µM.

Turning to `CC(C)C1=NN=CC1C1CC2CCC(C1)N2` (centres undefined), in the series on Plasmodium falciparum [1], at 10 µM the inhibition was 0%.

In the series with Plasmodium falciparum [1], `Cc1ccc(-c2nc3c(Br)cc4c(c3[nH]2)C(=O)NC(=O)C4(C)C)cc1[N+](=O)[O-]` returned an inhibition at 10 µM of 11.2%.

In the series with Plasmodium falciparum [1], `Cc1cc(C#N)cc(C)c1Oc1nc(Nc2ccc(C#N)cc2)nc(N)c1Br` [ETRAVIRINE] had an inhibition at 10 µM of 91.7%. The IC50 came to 0.506 µM in the series with Plasmodium falciparum [2], 0.409 µM in the series on Plasmodium falciparum [3], 0.726 µM in the series on Plasmodium falciparum [4] and 0.716 µM with Plasmodium falciparum [5]. Moreover, the viability in series [7] was over 98.5%. In addition, the Activity result in series [8] and in series [9] was “Non-toxic” in each case.

Turning to `Fc1cccc(-c2nc3ccncc3[nH]2)c1F`, at 10 µM the inhibition in the series on Plasmodium falciparum [1] was 14.4%.

In the series with Plasmodium falciparum [1], `CNC(=O)c1cc(Oc2ccc(NC(=O)Nc3ccc(Cl)c(C(F)(F)F)c3)cc2)ccn1` [SORAFENIB] had an inhibition at 10 µM of 87.5%. The IC50 in the series on Plasmodium falciparum [2] was found to be 0.384 µM; in the series with Plasmodium falciparum [3] it was 0.328 µM; in the series with Plasmodium falciparum [4], 0.509 µM; with Plasmodium falciparum [5], 0.376 µM.

Turning to `C/C(O)=C(\C#N)C(=O)Nc1ccc(C(F)(F)F)cc1` [TERIFLUNOMIDE], the inhibition at 10 µM in the series with Plasmodium falciparum [1] came out at 4.96%.

For the compound `COc1cc2ncn(-c3sc(C(N)=O)cc3OCc3ccccc3C(F)(F)F)c2cc1OC`, at 10 µM the inhibition with Plasmodium falciparum [1] was 24.6%.
